The data set can be described thus: gradient 5% acetonitrile 3 min, to 50% in 2 min, to 85% in 15 min, held 3 min, 100 µL/min. The following applies: column: Zorbax Extend-C18 2.1 x 50 mm; eluents: water / acetonitrile, 0.1% formic acid. Summed up: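 In both positive and negative ionization mode, a quadrupole time-of-flight mass spectrometer coupled to HPLC analyzed pure standards run in mixtures of ~100 molecules. The Zorbax Extend-C18 column (2.1 × 50 mm, 1.8 μm) was operated at 100 μL/min with water and acetonitrile, each containing 0.1% formic acid. The dead volume was 40 μL and the dwell volume 900 μL. Retention time came from adduct peaks that were computationally picked and individually inspected by hand.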
Regarding `C[C@H]1CN(C(=O)Nc2cccc(Cl)c2)C[C@@H]1c1nc(-c2cccnc2)no1`, the RP-LC retention time was 849 s.

Consider `CN1C2CCC1CC(OC(=O)C(CO)c1ccccc1)C2` (stereo not given), for which the RP-LC retention time was 638 s.

Compound `CCOC(=O)c1c(C)c(CCC(=O)N2CCN(CC)CC2)n(CC)c1C` registered an RP-LC retention time of 631 s.

The compound `CCNC(=O)c1c2c(nc3ccc(F)cc13)CCCC2` yielded an RP-LC retention time of 588 s.

Regarding `Cc1ccc(C)c(CNC(=O)c2nc(C)oc2C)c1`, the RP-LC retention time worked out at 867 s.

With `CCNC(=O)CCc1nc2ccccc2n(CC(=O)Nc2cccc(C(=O)OCC)c2)c1=O`, the RP-LC retention time is 775 s.

`Cc1ccc(NC(=O)N2CCC(c3cc(N)on3)CC2)cc1C`: the RP-LC retention time worked out at 728 s.

In turn, `CCOc1ccc(NC(=O)CCc2cccc3[nH]ccc23)cc1` yielded an RP-LC retention time of 875 s.

Turning to `O=C(NCc1ccco1)C1CCCN(c2nnc3c(Cl)cccn23)C1` (stereo not given), the RP-LC retention time turned out to be 627 s.

For the compound `COC(=O)c1c(NCc2cc(OC)ccc2OC)c2cccc(Cl)c2[nH]c1=O`, the RP-LC retention time turned out to be 808 s.

Take `CCOC(=O)c1c(S(=O)(=O)N2CCC(C(=O)Nc3cccc(C)n3)CC2)c(C)n(C)c1C`: the RP-LC retention time was found to be 701 s.

With `CCOc1ccc(-c2ccc(=O)n(Cc3nc(-c4ccc5c(c4)OCO5)no3)n2)cc1`, the RP-LC retention time was 1050 s.

Take `COc1ccc(-c2nc(C)cc(C)c2CNS(=O)(=O)c2ccc(OC)cc2)cc1`: the RP-LC retention time is 643 s.

`COc1ccc(NC(=O)N2CCC(n3cnc4cccnc43)CC2)cc1OC` registered an RP-LC retention time of 581 s.

For `c1ccc(-c2nc(-c3ccncc3)no2)c(OC2CCN(Cc3ccc4c(c3)CCO4)C2)c1` (stereo not given), the RP-LC retention time turned out to be 611 s.

`Cc1ccccc1-c1nc(Cn2ccnc2C)no1` yielded an RP-LC retention time of 555 s.

On to `COc1ccc(-c2cn3c(CC(=O)Nc4cccc(C#N)c4)csc3n2)cc1`, for which the RP-LC retention time was found to be 756 s.

In turn, `CC(C)(Oc1ccc(Cl)cc1)C(=O)NCC1CCN(C(=O)Nc2ccc(F)cc2)CC1` returned an RP-LC retention time of 874 s.

Take `COc1ccc(OC)c(Nc2c(-c3cccc(O)c3)nc3cnccn23)c1`: the RP-LC retention time came to 727 s.

In turn, `Cc1c(-c2cccc(NC(=O)C3CCCCC3)c2)nc2ncccn12` yielded an RP-LC retention time of 663 s.

The compound `CCCN(CC1CCOC1)C(=O)Nc1ccc(Cl)cc1F` (stereo not given) had an RP-LC retention time of 853 s.

For `CCOC(=O)Cc1ccc(NC(=O)N2CCCC2c2cccs2)cc1` (stereo not given), the RP-LC retention time is 921 s.

The compound `CN(C)C(=O)c1ccc2c(c1)CCN2C(=O)C1CCC1` showed an RP-LC retention time of 700 s.

`CCOC(=O)C1C(=O)C(=O)N(C(C)C)C1C(=O)OCC` (stereo not given) displayed an RP-LC retention time of 782 s.

Regarding `COCc1c(C(=O)N2CC(F)(F)C[C@H]2c2nc(C)no2)noc1C`, the RP-LC retention time was found to be 778 s.

In turn, `CC(C(=O)NCCN1CCOCC1)C1CCN(C(=O)c2cc3cc(Cl)ccc3[nH]2)CC1` (stereo not given) registered an RP-LC retention time of 589 s.

Regarding `CC(C)NC(=O)c1ccc2c(c1)N(S(C)(=O)=O)CC2`, the RP-LC retention time worked out at 691 s.

Compound `Cc1cc2c(cc1S(=O)(=O)N1CCCC1C(=O)N1CCN(c3ccccc3)CC1)OC(C)C(=O)N2` (stereo not given) gave an RP-LC retention time of 814 s.

Compound `Cc1ccn(CC(=O)NC2CCN(c3ccc(=O)n(CC4CC4)n3)C2)n1` (stereo not given) yielded an RP-LC retention time of 631 s.

As for `CN1CCN(C(=O)C2CCCN(c3ncccc3-c3noc(C4CCC4)n3)C2)CC1` (stereo not given), the RP-LC retention time is 623 s.

`CCOC(=O)N1CCN(c2ncc(S(=O)(=O)c3ccccc3)c(N)n2)CC1` registered an RP-LC retention time of 821 s.

Compound `Cc1ccc(C(C)C)c(OCC(=O)Nc2ccc(C(=O)O)cc2)c1` displayed an RP-LC retention time of 929 s.

`COC(=O)c1nc(NC(=O)Cn2nc3c(cc2=O)CCCC3)sc1C(C)C` returned an RP-LC retention time of 805 s.

Regarding `COc1ccc(N2C=C(C(=O)N3CCOCC3)S(=O)(=O)c3ccc(F)cc32)cc1OC`, the RP-LC retention time worked out at 729 s.

`Cc1ccc(NS(=O)(=O)c2ccc(-c3c(C)noc3C)cc2)cc1F` registered an RP-LC retention time of 964 s.

In turn, `CCCN(Cc1ccc(OC)cc1)Cc1cc(=O)n2cc(Cl)ccc2n1` showed an RP-LC retention time of 654 s.

In turn, `CC(C)c1cc(C(=O)Nc2ccc(F)c(F)c2)no1` returned an RP-LC retention time of 1040 s.

For the compound `CCCNc1cc(N2CCCC(CCC(=O)Nc3ccc(OC)cc3OC)C2)ncn1` (stereo not given), the RP-LC retention time amounted to 707 s.

Consider `Cc1noc2nc(C)n(CC(=O)Nc3ccc(F)cc3F)c(=O)c12`, for which the RP-LC retention time was 767 s.

For the compound `O=C(Cc1ccc(F)cc1)NCCOc1cccc(C(F)(F)F)c1`, the RP-LC retention time amounted to 880 s.

`O=C(NCc1ccccc1F)C1CCN(c2nnc3ccc(C(F)(F)F)cn23)CC1` came in with an RP-LC retention time of 764 s.

As for `O=C(NCCC1CCN(C(=O)Nc2cc(F)cc(F)c2)CC1)C1CC1`, the RP-LC retention time was determined as 735 s.

In turn, `CC(=O)Nc1ccc(OC(=O)c2ccccc2OC(C)=O)cc1` yielded an RP-LC retention time of 853 s.

For the compound `Cc1c(-c2noc(C(=O)NCCCN3CCCCCC3)n2)oc2ccccc12`, the RP-LC retention time turned out to be 692 s.

`Cc1cc2c(cc1S(=O)(=O)N1CCCC1C(=O)N1CCc3ccccc31)OC(C)C(=O)N2` (stereo not given) yielded an RP-LC retention time of 825 s.

With `COc1ccc(C2CC(=O)N(c3ccc(C)c(C)c3)C(=O)C2)cc1OC`, the RP-LC retention time worked out at 893 s.

With `CCc1ccc(NC(=O)c2cn(CC3CCCO3)cc3c(=O)n(-c4ccccc4)nc2-3)cc1` (stereo not given), the RP-LC retention time is 1160 s.

Compound `CC1(C)CC(=O)c2cn(-c3ccccc3)c(=O)c(C(=O)N3CCCC3)c2C1` registered an RP-LC retention time of 699 s.

On to `Cc1ccc2[nH]c(=O)c(CCC(=O)NCc3ccccn3)cc2c1`, for which the RP-LC retention time is 596 s.

`Cn1nc(C(=O)NCC2(C)CCOCC2)c2ccccc21` gave an RP-LC retention time of 763 s.

Regarding `CN(C)CCCCN1CCc2c(n(C)c3ccccc23)C1=O`, the RP-LC retention time came to 650 s.

`Cc1cc(NC(=O)CCc2nc(CSc3nnc(-c4ccccc4)o3)no2)ccc1Br` yielded an RP-LC retention time of 1040 s.

`Cn1nccc1C(=O)N1CCN(c2nc3c(S(C)(=O)=O)cccc3s2)CC1` had an RP-LC retention time of 656 s.

Regarding `CCN(c1cccc(C)c1)S(=O)(=O)c1ccc2c(c1)N(C(C)=O)CCCS2`, the RP-LC retention time worked out at 986 s.

`CCOc1ccc(C(=O)N2C[C@@H]3C[C@H]2C[C@@H]3NC(=O)c2cccs2)cc1` displayed an RP-LC retention time of 758 s.

`Cc1cc(Cl)ccc1S(=O)(=O)N1C[C@H](F)C[C@@H]1C(=O)N1CCOCC1` returned an RP-LC retention time of 762 s.

With `COc1ccc(C2(C(=O)Nc3cc(-c4cccnc4)no3)CC2)cc1`, the RP-LC retention time is 816 s.

As to `O=C(NC1CCN(c2cc(-c3cccs3)[nH]n2)C1)c1cccc(Cl)c1` (stereo not given), the RP-LC retention time stood at 719 s.

Consider `O=C(C1CCC1)N1CCC(c2noc(-c3ccncc3)n2)C1` (stereo not given), for which the RP-LC retention time amounted to 693 s.

`CCCn1cnc2cc(-c3noc(C(C)NS(=O)(=O)c4ccc(C)cc4)n3)ccc21` (stereo not given) showed an RP-LC retention time of 731 s.

The compound `COc1ccc(CNC(=O)C2(C)CCN(C(=O)Nc3cc(OC)c(OC)c(OC)c3)CC2)cc1` registered an RP-LC retention time of 733 s.

On to `CCOC(=O)CNC(=O)N1CCCC1c1ccc(OC)cc1` (stereo not given), for which the RP-LC retention time is 728 s.

`CC(C)N1C(=O)c2cccnc2Sc2cc(C(=O)NCC3CCCO3)ccc21` (stereo not given) showed an RP-LC retention time of 695 s.

`CCN(CC)C(=O)c1ccc2c(c1)N(CC(=O)NC1CCCC1)C(=O)C1CCCCN21` (stereo not given) gave an RP-LC retention time of 789 s.

Take `Cc1nnc(N2CCCC(C(=O)NCCN3CCCC3)C2)c2nn(-c3ccc(Cl)cc3)c(C)c12` (stereo not given): the RP-LC retention time was found to be 591 s.

Regarding `COc1cccc2c1C(=O)c1c(O)c3c(c(O)c1C2=O)C[C@@](O)(/C(C)=N\O)C[C@@H]3OC1CC(N)C(O)C(C)O1` (stereo not given in full), the RP-LC retention time worked out at 681 s.

As to `COCCn1cc(C(=O)Nc2ccc(F)cc2F)c2nn(-c3ccccc3)c(=O)c-2c1`, the RP-LC retention time was determined as 1010 s.

`CCN1CCOc2ccc(NC(=O)c3ccc4c(c3)OCO4)cc2C1=O`: the RP-LC retention time was determined as 675 s.

Take `COC(=O)c1ccc(NC(=O)CN2CC(c3nc(-c4cnccn4)no3)C2)cc1`: the RP-LC retention time is 561 s.

In turn, `CCc1ccc(S(=O)(=O)NCc2c(-c3ccccc3)nc3sc(CC)nn23)cc1` displayed an RP-LC retention time of 1020 s.

The compound `COc1ccccc1CNc1c(-c2cc(OC)c(OC)c(OC)c2)nc2ncccn12` returned an RP-LC retention time of 714 s.

With `CCOC(=O)c1c(C)c(C(=O)Nc2cc(Cl)ccc2OC)c(C)n1CC`, the RP-LC retention time was 1180 s.

In turn, `CC(=O)N(C)c1ccc(NS(=O)(=O)c2ccc(C)cc2)c([N+](=O)[O-])c1` registered an RP-LC retention time of 742 s.

`Cc1ccc(Cl)cc1NC(=O)Cn1nc(N2CCOCC2)c2ccccc2c1=O` gave an RP-LC retention time of 856 s.

As for `CCCC(=O)N1CC(c2nc(-c3ccc(F)cc3)no2)C2(CCOCC2)C1` (stereo not given), the RP-LC retention time was found to be 872 s.

`CCN1C(=O)CCc2cc(NS(=O)(=O)c3cccc(C)c3)ccc21` displayed an RP-LC retention time of 788 s.

Compound `Cc1noc(C)c1S(=O)(=O)N1CCCC(c2nnnn2-c2ccccc2)C1` (stereo not given) yielded an RP-LC retention time of 903 s.

As for `CCOC(=O)C1=C(CN2CCCCC2)NC(=O)NC1c1cccs1` (stereo not given), the RP-LC retention time came to 545 s.

`CCOC(=O)c1c(C)c(CCC(=O)N2CCN(c3ccccn3)CC2)n(C)c1C`: the RP-LC retention time turned out to be 616 s.

For `Cc1cccc(Sc2nccnc2N2CCCC(C(=O)NCc3cccc(Cl)c3)C2)c1` (stereo not given), the RP-LC retention time came to 1180 s.

The values are drawn from the METLIN SMRT retention time set (Domingo-Almenara et al. 2019).
